Values quoted from earlier work, collected in article PMC3652662 (Journal of molecular recognition : JMR, 2009).

System: HIV-1YU2 gp120
Conditions: SPR direct binding, HIV-1 Env YU2 (clade B) gp120; ref Gopi et al. (2008)

Sequence: RINNIPWSEAMM [Peptide 12p1]
- ka: 13600 M⁻¹ s⁻¹
